Results from article PMC7439413 (Science Advances, 2020).

Experiments:
[1] = system: GRwt LBD-ligand complex / TIF2 peptide; assay: SPR: binding of GRwt-ligand complexes to immobilized TIF2 peptide; parameters: species or system human; details: stated for both TIF2 and PRGC1
[2] = system: GRF602S-ligand-TIF2 complex; assay: CPMG relaxation dispersion NMR, GRF602S-ligand-TIF2; parameters: species or system human; details: GRF602S-dex-TIF2; 13C CPMG, 14.1 and 18.8 T, 298 K
[3] = system: GRwt-ligand-PRGC1 complex; assay: CPMG relaxation dispersion NMR, GRwt-ligand-PRGC1; parameters: species or system human; details: GRwt-dex-PRGC1; 13C CPMG, 18.8 T, 298 K
human GR = target: T1, human GR (Homo sapiens, UniProt P04150); assay: GR reporter gene assay; assay type: cell-based; details: transactivation reporter gene assay, comparison among steroid ligands
T1 sequence (P04150 1-777): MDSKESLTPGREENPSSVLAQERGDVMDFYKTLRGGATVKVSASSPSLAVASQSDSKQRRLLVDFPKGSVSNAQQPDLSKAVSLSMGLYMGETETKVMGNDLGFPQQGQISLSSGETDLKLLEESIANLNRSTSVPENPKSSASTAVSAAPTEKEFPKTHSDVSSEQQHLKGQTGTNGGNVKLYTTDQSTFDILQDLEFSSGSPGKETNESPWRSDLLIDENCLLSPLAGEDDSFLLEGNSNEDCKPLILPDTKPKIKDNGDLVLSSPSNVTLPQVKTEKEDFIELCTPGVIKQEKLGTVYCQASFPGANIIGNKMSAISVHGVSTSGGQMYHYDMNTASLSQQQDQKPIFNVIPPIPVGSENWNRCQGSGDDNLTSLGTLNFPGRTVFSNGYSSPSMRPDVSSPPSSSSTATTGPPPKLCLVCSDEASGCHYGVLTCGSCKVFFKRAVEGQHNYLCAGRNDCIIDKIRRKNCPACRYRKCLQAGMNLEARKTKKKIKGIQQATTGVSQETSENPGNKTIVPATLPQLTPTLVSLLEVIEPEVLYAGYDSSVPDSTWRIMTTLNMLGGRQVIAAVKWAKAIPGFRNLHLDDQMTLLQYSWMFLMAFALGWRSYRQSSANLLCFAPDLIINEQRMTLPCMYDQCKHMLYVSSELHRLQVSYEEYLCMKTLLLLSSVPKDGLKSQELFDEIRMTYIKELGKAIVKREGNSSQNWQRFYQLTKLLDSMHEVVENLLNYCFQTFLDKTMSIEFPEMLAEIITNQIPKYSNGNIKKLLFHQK

GRwt-ligand-TIF2 complex = assay: CPMG relaxation dispersion NMR, GRwt-ligand-TIF2; parameters: species or system human; details: M752 13C CPMG, semiquantitative interpretation, 298 K
[4] = target: GRwt LBD-ligand complex / PRGC1 peptide (Homo sapiens, UniProt P04150); assay: SPR: binding of GRwt-ligand complexes to immobilized PRGC1 peptide; details: both GR constructs (GRwt and GRF602S), irrespective of ligand

C[C@]12CCC(=O)C=C1CC[C@@H]1[C@@H]2[C@@H](O)C[C@@]2(C)[C@H]1CC[C@]2(O)C(=O)CO [cortisol]
coregulator-binding affinity rank of GRwt-ligand complex in words [1]: weakest affinity in both cases

C[C@@H]1C[C@H]2[C@@H]3CCC4=CC(=O)C=C[C@]4(C)[C@@]3(F)[C@@H](O)C[C@]2(C)[C@@]1(O)C(=O)CO [dex, dexamethasone]
M565 relaxation dispersion in words [2]: shows relaxation dispersion in the GRF602S-dex-TIF2 complex, albeit of much lower amplitude
M752 relaxation dispersion in words [2]: marked relaxation dispersion profile
M565 relaxation dispersion in words [3]: does not show any dispersion

C[C@]12C=CC(=O)C=C1CC[C@@H]1[C@@H]2[C@@H](O)C[C@@]2(C)[C@H]1C[C@H]1O[C@@H](C3CCCCC3)O[C@]12C(=O)CO [dibC, desisobutyryl-ciclesonide]
coregulator-binding affinity rank of GRwt-ligand complex in words [1]: highest affinity for coregulator peptides
Agonist potency/efficacy in words (human GR): partial agonist, dibC binds GR with high potency
population ratio of helix 12 conformations, pm/pM (GRwt-ligand-TIF2 complex): 0.1

PPQEAEEPSLLKKLLLAPANT [PRGC1]
affinity of GR constructs for coregulator in words [4]: higher affinity for PRGC1 than for TIF2
